Type in all cases: in vivo
Assay [1] relates to Setaria viridis. In words: Post-emergence test, weed control effect. Conditions: 504 h, after 3 weeks, fresh weight inhibition, read-out: activity level of harmful plant destruction (growth inhibition rate), Setaria viridis. A digest of the protocol: (§1)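 Scores use a 0 (no effect) to 10 (dead) scale of fresh-weight inhibition, assessed 3 weeks after spraying. Treatment was at the 2-3 leaf stage, 2-3 weeks post-sowing, using acetone/Tween-80/water solutions with 80% vegetable oil methyl ester synergist at 1500 g/ha.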

For assay [2], the system named is Echinochloa crus-galli. In words: Post-emergence test, weed control effect. The conditions noted are these: 504 h, after 3 weeks, fresh weight inhibition, read-out: activity level of harmful plant destruction (growth inhibition rate), Echinochloa crus-galli. In a few lines: as §1
The test system of assay [3] is Galium aparine. In words: Post-emergence test, weed control effect. The conditions noted are these: 504 h, after 3 weeks, fresh weight inhibition, read-out: activity level of harmful plant destruction (growth inhibition rate), Galium aparine. In a few lines:
as §1

In assay [4] the test system is Rorippa indica. In words: Post-emergence test, weed control effect. Conditions: after 3 weeks; for inhibition at 300 g/ha / inhibition at 150 g/ha: Rorippa indica, 504 h, fresh weight inhibition, read-out: activity level of harmful plant destruction (growth inhibition rate), Rorippa indica. In a few lines: as §1
In assay [5] the test system is Veronica polita. In words: Post-emergence test, weed control effect. The conditions noted are these: after 3 weeks; for inhibition at 300 g/ha / inhibition at 150 g/ha: Veronica polita, 504 h, fresh weight inhibition, read-out: activity level of harmful plant destruction (growth inhibition rate), Veronica polita. In a few lines:
as §1

Assay [6] concerns Chenopodiaceae. In words: Post-emergence test, weed control effect. The conditions noted are these: after 3 weeks; for inhibition at 300 g/ha / inhibition at 150 g/ha: 504 h, fresh weight inhibition, read-out: activity level of harmful plant destruction (growth inhibition rate), Chenopodiaceae. A digest of the protocol:
as §1

The test system of assay [7] is Amaranthus retroflexus. The experiment in a line: Post-emergence test, weed control effect. The conditions noted are these: after 3 weeks. In a few lines:
as §1

Assay [8] deals with weeds. The experiment in a line: Control effect and synergistic effect of the mixture of (i) and (ii), postemergence (Gowing method). Conditions: for Inhibitory effect of component (i) when applied alone at same dose: 30 g a.i./ha. From the text:
Wherein, in the formula, X represented the fresh weight inhibition rate of the active ingredient A in a dosage of P, and Y represented the fresh weight inhibition rate of the active ingredient B in a dosage of Q. The statistic results are shown in Table 6.

[9] abbreviates: Abutilon theophrasti, 50 g a.i./ha, postemergence, 20 days after treatment.
Where [10] appears, read: Abutilon theophrasti, 5 g a.i./ha, postemergence, 20 days after treatment.

Read-outs that look alike come from different tables or passages of the source.

The inhibition is the drop in the measured response relative to a control, in per cent. With `Oc1cc(Cl)nnc1-c1ccccc1` [A, reference compound], the inhibition at 300 g/ha in assay [1] is 30 to 40%; in assay [2] it was 0%; in assay [3], 50 to 60%; in assay [4] it was 20 to 30%; in assay [5] it was 30 to 40%; in assay [6], 50 to 60%.

With `CCCCCCCCSC(=O)Oc1cc(Cl)nnc1-c1ccccc1` [B, reference compound], the inhibition at 300 g/ha was 30 to 40% in assay [1]; 0% in assay [2]; 40 to 50% in assay [3]; 30 to 40% in assay [4]; 30 to 40% in assay [5]; 30 to 40% in assay [6].

Turning to `Cn1nc(-c2cc(O)c(Cl)cc2Cl)c(=O)cc1C(F)(F)F` [C, reference compound], the inhibition at 300 g/ha in assay [1] is 0%; in assay [2] it was 0%; in assay [3] it was 20 to 30%; in assay [4] it was 30 to 40%; in assay [5] it was 20 to 30%; in assay [6], 30 to 40%.

With `CCCCCCCCOC(=O)Oc1cc(C(F)(F)F)nnc1-c1ccc(F)cc1` [Compound 1-39], the inhibition at 150 g/ha in assay [1], in assay [2], in assay [3], in assay [4], in assay [5] and in assay [6] was 100% throughout. For the same compound, the “weed control effect, Rorippa indica (activity level)” value (“weed control effect, Rorippa indica” for short) in assay [4] (Dose 3000 g/ha) is on record as 10. The “weed control effect, Veronica polita (activity level)” value (from here on “weed control effect, Veronica polita”) in assay [5] (Dose 3000 g/ha) is listed as 10. Further, the “weed control effect, Chenopodiaceae (activity level)” value (shortened to “weed control effect, Chenopodiaceae”) in assay [6] (Dose 3000 g/ha) was 10. Further, the “weed control effect, Amaranthus retroflexus (activity level)” value in assay [7] (Dose 3000 g/ha) was found to be 10.

With `CCCSC(=O)Oc1cc(C(F)(F)F)nnc1-c1ccc(F)cc1` [Compound 1-43], the inhibition at 150 g/ha in assay [1], in assay [2], in assay [3], in assay [4], in assay [5] and in assay [6] was 100% each time. The “weed control effect, Rorippa indica” value in assay [4] (Dose 3000 g/ha) is on record as 10. Further, the “weed control effect, Veronica polita” value in assay [5] (Dose 3000 g/ha) is reported as 10. Also, in assay [6] (Dose 3000 g/ha), the “weed control effect, Chenopodiaceae” value worked out at 10. Also, the “weed control effect, Amaranthus retroflexus (activity level)” value in assay [7] (Dose 3000 g/ha) is 10.

Regarding `CCCCCCCCSC(=O)Oc1cc(C(F)(F)F)nnc1-c1ccc(F)c(F)c1` [Compound 1-55], the inhibition at 150 g/ha in assay [1], in assay [2], in assay [3], in assay [4], in assay [5] and in assay [6] was 100% in each case. Further, the “weed control effect, Rorippa indica” value in assay [4] (Dose 3000 g/ha) was found to be 10. Further, in assay [5] (Dose 3000 g/ha), the “weed control effect, Veronica polita” value amounted to 10. The “weed control effect, Chenopodiaceae” value in assay [6] (Dose 3000 g/ha) is 10. Further, in assay [7] (Dose 3000 g/ha), the “weed control effect, Amaranthus retroflexus (activity level)” value is 10.

On to `N#Cc1ccc(-c2nnc(C(F)(F)F)cc2OC(=O)c2ccc(Cl)cc2)cc1` [Compound 1-82], for which the inhibition at 150 g/ha in assay [1] is 100%; in assay [2], 70 to 80%; in assay [3], 70 to 80%; in assay [4] it was 100%; in assay [5], 80 to 90%; in assay [6], 100%. Further, in assay [4] (Dose 3000 g/ha), the “weed control effect, Rorippa indica” value stood at 10. Further, the “weed control effect, Veronica polita” value in assay [5] (Dose 3000 g/ha) was found to be 10. Moreover, the “weed control effect, Chenopodiaceae” value in assay [6] (Dose 3000 g/ha) is listed as 10. In addition, the “weed control effect, Amaranthus retroflexus (activity level)” value in assay [7] (Dose 3000 g/ha) is 10.

In the case of `N#Cc1ccccc1C(=O)Oc1cc(C(F)(F)F)nnc1-c1ccc(F)c(F)c1` [Compound 1-86], the inhibition at 150 g/ha in assay [1], in assay [2], in assay [3], in assay [4], in assay [5] and in assay [6] was 100% each time. For the same compound, the “weed control effect, Rorippa indica” value in assay [4] (Dose 3000 g/ha) is on record as 10. Further, the “weed control effect, Veronica polita” value in assay [5] (Dose 3000 g/ha) came to 10. Besides, the “weed control effect, Chenopodiaceae” value in assay [6] (Dose 3000 g/ha) was 10. Further, the “weed control effect, Amaranthus retroflexus (activity level)” value in assay [7] (Dose 3000 g/ha) came to 10.

Regarding `Oc1cc(C(F)(F)F)nnc1-c1ccccc1` [Compound 1], the “weed control effect (activity level), Rorippa indica” value in assay [4] (dose 2000 g/ha) is 10. Also, in assay [5] (dose 2000 g/ha), the “weed control effect (activity level), Veronica polita” value was 10. In assay [6] (dose 2000 g/ha), the “weed control effect (activity level), Chenopodiaceae” value was 8 (Level 8: above 80% growth inhibition rate). Also, the “weed control effect (activity level), Amaranthus retroflexus” value in assay [7] (dose 2000 g/ha) amounted to 10. Also, the “Inhibitory effect of component (i) when applied alone at same dose” value in assay [8] (Abutilon theophrasti, postemergence, 20 days after treatment) was found to be 20; in assay [8] (Galinsoga parviflora, postemergence, 20 days after treatment) it was 30; in assay [8] (Galium aparine, postemergence, 20 days after treatment), 20; in assay [8] (Sisymbrium sophia, postemergence, 20 days after treatment) it was 20; in assay [8] (Veronica polita, postemergence, 20 days after treatment), 30.

`Oc1cc(C(F)(F)F)nnc1C1=CCCCC1` [Compound 1524]: the inhibition at 300 g/ha in assay [1] is 100%; in assay [3] it was 90 to 100%; in assay [4] it was 100%; in assay [5], 90 to 100%; in assay [6] it was 100%. For the same compound, the “weed control effect (activity level), Rorippa indica” value in assay [4] (Dose 3000 g/ha) turned out to be 10. Moreover, the “weed control effect (activity level), Veronica polita” value in assay [5] (Dose 3000 g/ha) turned out to be 10. In addition, the “weed control effect (activity level), Chenopodiaceae” value in assay [6] (Dose 3000 g/ha) worked out at 10. Also, the “weed control effect (activity level), Amaranthus retroflexus” value in assay [7] (Dose 3000 g/ha) was determined as 10.

For `COc1cc(C(F)(F)F)nnc1-c1ccccc1` [D, reference compound], the inhibition at 300 g/ha in assay [1] was 0%; in assay [2], 0%; in assay [3], 0%; in assay [4], 0 to 20%; in assay [5], 0%; in assay [6], 0 to 20%.

Take `C=CCOc1cc(C(F)(F)F)nnc1-c1ccccc1` [E, reference compound]: the inhibition at 300 g/ha in assay [1] was 0%; in assay [2], 0%; in assay [3] it was 0%; in assay [4], 0 to 20%; in assay [5], 0%; in assay [6], 0 to 20%.

Consider `O=C(O)c1c(Cl)ccc2cc(Cl)cnc12` [Quinclorac], for which, in assay [8] (post-emergence, 480 h, Galium aparine, 50 g a.i./ha, postemergence, 20 days after treatment, read-out: Inhibitory effect of component (ii) when applied alone at same dose), the pest or weed control at 50 g/ha turned out to be 50%.

With `Cc1nn(C)cc1C(=O)Oc1c(C(=O)c2ccc(C(F)(F)F)cc2S(C)(=O)=O)c(C)nn1C` [Shuangzuocaotong], in assay [8] (Sisymbrium sophia, 5 g a.i./ha, postemergence, 20 days after treatment), the “Inhibitory effect of component (ii) when applied alone at same dose” value (shortened to “Inhibitory effect of component (ii)”) was 40%.

Consider `CS(=O)(=O)c1ccc(C(=O)C2C(=O)CCCC2=O)c(Cl)c1` [Sulcotrione], for which the pest or weed control at 50 g/ha in assay [8] (Abutilon theophrasti, post-emergence, 480 h, read-out: Inhibitory effect of component (ii) when applied alone at same dose) turned out to be 30%.

For the compound `CS(=O)(=O)c1ccc(C(=O)C2C(=O)CCCC2=O)c(Cl)c1COCC1CCCO1` (stereo not drawn) [Tefuryltrione], the “Inhibitory effect of component (ii)” value in assay [8] (setting [9]) worked out at 40%.

As for `CS(=O)(=O)c1ccc(C(=O)C2C(=O)CCCC2=O)c(Cl)c1COCC(F)(F)F` [Tembotrione], the pest or weed control at 15 g/ha in assay [8] (post-emergence, 480 h, Abutilon theophrasti, 15 g a.i./ha, postemergence, 20 days after treatment, read-out: Inhibitory effect of component (ii) when applied alone at same dose) worked out at 30%.

With `CCn1ncc(C(=O)c2ccc(S(C)(=O)=O)c(OCCOC)c2C)c1OC(C)OC(=O)OC` (stereo not drawn) [Tolpyralate], the “Inhibitory effect of component (ii)” value in assay [8] (setting [10]) came to 50%.

Consider `Cc1c(C(=O)c2cnn(C)c2O)ccc(S(C)(=O)=O)c1C1=NOCC1` [Topramezone], for which the “Inhibitory effect of component (ii)” value in assay [8] (setting [10]) is 40%.

As for `O=C(O)COc1nc(Cl)c(Cl)cc1Cl` [Trichlopyr], in assay [8] (setting [9]), the “Inhibitory effect of component (ii)” value came out at 40%.

`O=C(O)COc1nc(Cl)c(Cl)cc1Cl` [Triclopyr]: the pest or weed control at 50 g/ha in assay [8] (post-emergence, 480 h, Abutilon theophrasti, 50 g a.i./ha, postemergence, 20 days after treatment, read-out: Inhibitory effect of component (ii) when applied alone at same dose) is 35%.

Take Fluridone: the “Inhibitory effect of component (ii)” value in assay [8] (Abutilon theophrasti, 100 g a.i./ha, postemergence, 20 days after treatment) stood at 45%.

The values are drawn from patent US12568972B2, “Pyridazinol compounds and derivatives, preparation methods, herbicidal compositions and applications thereof” (Qingdao Kingagroot Chemical Compound Co., Ltd., priority 2018, dated 2026).
